# Results from patent US12622915B2, “Methods of treating PDE IV-mediated diseases or conditions” (Vanda Pharmaceuticals Inc., priority 2020, dated 2026).
# Target: T1, Phosphodiesterase PDE4A1A (Homo sapiens, UniProt P27815)
# T1 construct: host or cells: insect Sf9 cells
# Assay: Phosphodiesterase PDE4A1A enzyme assay
# Format: biochemical
# Text: Reference standards are run as an integral part of each assay to ensure the validity of the results obtained. Reference Compounds: • Phosphodiesterase PDE10A2 Papaverine • Phosphodiesterase PDE11A4 Dipyridamole • Phosphodiesterase PDE1A MMPX • Phosphodiesterase PDE2A EHNA • Phosphodiesterase PDE3A Cilostamide • Phosphodiesterase PDE4A1A Rolipram • Phosphodiesterase PDE4B1 Rolipram • Phosphodiesterase PDE5A Zaprinast • Phosphodiesterase PDE6 Zaprinast • Phosphodiesterase PDE7A IBMX • Phosphodiesterase PDE7B IBMX • Phosphodiesterase PDE8A1 Dipyridamole • Phosphodiesterase PDE9A2 Zaprinast
# PDE4 assays are performed using methods adapted from the literature. See Richter W, et al. (2001) Identification of inhibitor binding sites of the cAMP-specific phosphodiesterase 4. Cell Signal. 13(4): 287-297; Wang H, et al. (2005) Multiple elements jointly determine inhibitor selectivity of cyclic nucleotide phosphodiesterases 4 and 7. J Biol Chem. 280(35): 30949-30955.
# Phosphodiesterase PDE4A1A; Phosphodiesterase PDE4B1; Phosphodiesterase PDE10A2; Phosphodiesterase PDE11A4; Phosphodiesterase PDE2A; Phosphodiesterase PDE3A; Phosphodiesterase PDE7A; Phosphodiesterase PDE7B; and Phosphodiesterase PDE8A1: • Source: Human recombinant insect Sf9 cells • Substrate: 0.10 μM FAM-cAMP • Vehicle: 1.00% DMSO • Significance Crit.: ≥50% of max stimulation or inhibition • Incubation Buffer: 10 mM Tris-HCl, pH 7.2, 10 mM MgCl2, 0.05% NaN3, 0.1% phosphate-free BSA • Quantitation Method: Quantitation of Fluorescein-AMP-IMAP • Pre-Incub. Time/Temp: 15 minutes @25° C. • Incubation Time/Temp: 30 minutes @25° C.
# (§1) IC50 values are determined by a non-linear, least squares regression analysis using MathIQ™ (ID Business Solutions Ltd., UK). Where inhibition constants (Ki) are presented, the Ki values are calculated using the equation of Cheng and Prusoff (Cheng, Y., Prusoff, W. H., Biochem. Pharmacol. 22:3099-3108, 1973) using the observed IC50 of the tested compound, the concentration of radioligand employed in the assay, and the historical values for the KD of the ligand. Where presented, the Hill coefficient (nH), defining the slope of the competitive binding curve, is calculated using MathIQ™. […] Where IC50, Ki, and/or nH data are presented without Standard Error of the Mean (SEM), data are insufficient to be quantitative, and the values presented (Ki, IC50, nH) are interpreted with caution.
# Reference standards are run as an integral part of each assay to ensure the validity of the results obtained. Rolipram is used for the PDE4 assays.
# Phosphodiesterase PDE4A1A: • Source: Human recombinant insect Sf9 cells • Substrate: 0.10 μM FAM-cAMP • Vehicle: 1.00% DMSO • Significance Crit.: ≥50% of max stimulation or inhibition • Incubation Buffer: 10 mM Tris-HCl, pH 7.2, 10 mM MgCl2, 0.05% NaN3, 0.1% phosphate-free BSA • Quantitation Method: Quantitation of Fluorescein-AMP-IMAP • Pre-Incub. Time/Temp: 15 minutes @25° C. • Incubation Time/Temp: 30 minutes @25° C.
# as §1, with “W.H.,” for “W. H.,”
# T1 sequence (P27815 1-647 isoform P27815-4): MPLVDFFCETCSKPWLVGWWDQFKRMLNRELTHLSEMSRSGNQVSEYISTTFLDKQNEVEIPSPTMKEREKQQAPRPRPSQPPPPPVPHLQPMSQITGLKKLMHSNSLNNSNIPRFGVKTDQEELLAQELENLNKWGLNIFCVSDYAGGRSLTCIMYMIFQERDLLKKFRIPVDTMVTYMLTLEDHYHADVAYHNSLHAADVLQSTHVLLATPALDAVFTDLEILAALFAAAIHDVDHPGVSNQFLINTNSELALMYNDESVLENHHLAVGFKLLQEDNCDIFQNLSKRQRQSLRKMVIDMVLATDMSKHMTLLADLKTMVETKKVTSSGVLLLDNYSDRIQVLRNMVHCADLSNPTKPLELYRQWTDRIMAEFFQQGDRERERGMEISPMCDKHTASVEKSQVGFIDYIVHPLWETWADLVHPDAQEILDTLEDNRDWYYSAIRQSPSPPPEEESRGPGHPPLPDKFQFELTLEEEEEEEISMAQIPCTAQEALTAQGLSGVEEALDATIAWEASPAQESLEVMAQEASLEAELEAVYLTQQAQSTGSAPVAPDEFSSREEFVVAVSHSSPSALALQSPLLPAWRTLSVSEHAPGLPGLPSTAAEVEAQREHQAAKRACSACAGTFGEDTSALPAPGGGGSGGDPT
compound,measurement,setting,value
"CNc1nc(Nc2ccccc2)nc(OCC(F)(F)C(F)F)n1 [compound of Formula (I), N^2-methyl-N^4-phenyl-6-(2,2,3,3-tetrafluoropropoxy)-1,3,5-triazine-2,4-diamine]",inhibition at 0.01 µM,"10 nM, N=2, Example 4",23%
same,inhibition at 0.03 µM,"0.03 μM, N=2, Example 4",37%
same,inhibition at 0.1 µM,"0.1 μM, N=2, Example 4",58%
same,inhibition at 0.3 µM,"0.3 μM, N=2, Example 4",75%
same,inhibition at 1 µM,"1 μM, N=2, Example 4",87%
same,inhibition at 3 µM,"3 μM, N=2, Example 4",93%
same,inhibition at 10 µM,"N=2, Example 3",99%
same,inhibition at 10 µM,"N=2, Example 4",96%
same,IC50,Example 4,63 nM
